Results reported in patent publication US20260166159A1, “KRAS G12D DEGRADATION AGENT, AND PREPARATION METHOD AND USE THEREFOR” (LEADINGTAC PHARMACEUTICAL (SHAOXING) CO., LTD., priority 2022, published 2026).

What was measured:
[1] = test system: phosphorylated ERK; assay: KRAS G12D-mediated phosphorylated ERK inhibition assay (AlphaLISA), A427; format: cell-based; conditions: Homo sapiens, A-427; A427 cells; class symbols; read-out: pERK (A427) IC50
Protocol: The relative amounts of phosphorylated ERK and total ERK in the samples were separately determined according to the test methods provided in the instructions of the AlphaLISA SureFire Ultra p-ERK 1/2 (Thr202/Tyr204) kit (PerkinElmer) and the AlphaLISA SureFire Ultra TotalERK 1/2 kit (PerkinElmer).
The experimental procedures for the assay of the phosphorylated ERK and total ERK were as follows: 10 μL of each sample was added to a 384-well plate (Greiner), and 5 μL of the prepared Acceptor Beads (PerkinElmer) mixed solution (containing 50× Acceptor Beads 615, Activation Buffer, and equal volumes of Reaction Buffer 1 and Reaction Buffer 2) was added to each well; and the plate was incubated at room temperature for 2 h. Then 5 μL of 1× Donor Beads (PerkinElmer) diluted with Dilution Buffer was added to each well, and the plate was incubated at room temperature overnight. After the incubation was completed, AlphaLISA signal values for the phosphorylated ERK and total ERK were separately measured on an EnVision microplate reader (PerkinElmer) in the AlphaScreen standard mode. The following formula was adopted: phosphorylated ERK correction value=phosphorylated ERK AlphaLISA signal value/total ERK AlphaLISA signal value. The relative ratio of the phosphorylated ERK for each sample was calculated. The percentage inhibition rates of the compounds on the phosphorylated ERK at each concentration were calculated by comparing the relative value of the phosphorylated ERK with that of the DMSO control well. Then non-linear curve fittings for logarithmic concentration-inhibition rate were performed by the GraphPad Prism 8 analysis software, and the IC50 values of the compounds on the inhibition of the phosphorylated ERK were obtained (Table 2).

[2] = test system: KRAS G12D mutant human gastric cancer cell AGS; assay: 3D cell proliferation inhibition assay, AGS; format: cell-based; conditions: 168 h, 7 days, CTG, class symbols
Outline: (§1)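 A 7-day 3D growth at 37 °C, 5% CO2, 5×10^2 cells/well, with final compound concentrations of 10000–0.026 nM and 0.2% DMSO. Read-out: CTG luminescence (60 min, room temperature); % inhibition against DMSO-treated cells and medium blank, fitted versus log concentration to give IC50.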

[3] = test system: KRAS G12D mutant human lung cancer cell A427; assay: 3D cell proliferation inhibition assay, A427; format: cell-based; conditions: A-427, 168 h, A427, 7 days, CTG, class symbols
Outline: as §1

[4] = biological target: T1, Human KRAS G12D 6His-tagged (Homo sapiens, UniProt P01116, G12D); assay: KRAS-G12D/GTP binding assay (HTRF); conditions: class symbols
T1 construct: purchased PerkinElmer
T1 sequence (P01116 1-188 isoform P01116-2 G12D): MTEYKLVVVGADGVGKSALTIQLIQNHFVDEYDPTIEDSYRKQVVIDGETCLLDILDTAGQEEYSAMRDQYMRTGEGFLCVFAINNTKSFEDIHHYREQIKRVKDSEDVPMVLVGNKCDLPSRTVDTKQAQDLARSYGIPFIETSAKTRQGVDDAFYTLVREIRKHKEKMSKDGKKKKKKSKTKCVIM
Outline: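 Compounds at 0.02-5000 nM final (0.5% DMSO) were tested for blocking GTP Red tracer binding to His-tagged KRAS G12D, detected by Eu-cryptate anti-His antibody after 1 h, 25° C. Inhibition taken from 665/620 nm ratio relative to control, then fitted to give IC50.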

Structure (SMILES) | IC50 [1] [nM] | IC50 [2] [nM] | IC50 [3] [nM] | IC50 [4] [nM]
C#Cc1c(F)ccc2cc(O)cc(-c3ncc4c(N5CC6CCC(C5)N6)nc(OCC5(CN6CCN(CCCCC7CCC8(CC7)CCN(C(=O)c7ccc(Cl)c(N9CCC(=O)NC9=O)c7)CC8)CC6)CC5)nc4c3F)c12 [Example 31, 1-(5-(9-(4-(4-((1-(((4-(3,8-diazabicyclo[3.2.1]octan-3-yl)-7-(8-ethynyl-7-fluoro-3-hydroxynaphthalen-1-yl)-8-fluoropyrido[4,3-d]pyrimidin-2-yl)oxy)methyl)cyclopropyl)methyl)piperazin-1-yl)butyl)-3-azaspiro[5.5]undecane-3-carbonyl)-2-chlorophenyl)dihydropyrimidine-2,4(1H,3H)-dione] | ≤ 50 | ≤ 50 | ≤ 50 | ≤ 50
C#Cc1c(F)ccc2cc(O)cc(-c3ncc4c(N5CC6CCC(C5)N6)nc(OCC(C)(C)CN5CCN(CC6CCC7(CC6)CCN(C(=O)c6ccc(OC)c(N8CCC(=O)NC8=O)c6)CC7)CC5)nc4c3F)c12 [Example 26, 1-(5-(9-((4-(3-((4-(3,8-diazabicyclo[3.2.1]octan-3-yl)-7-(8-ethynyl-7-fluoro-3-hydroxynaphthalen-1-yl)-8-fluoropyrido[4,3-d]pyrimidin-2-yl)oxy)-2,2-dimethylpropyl)piperazin-1-yl)methyl)-3-azaspiro[5.5]undecane-3-carbonyl)-2-methoxyphenyl)dihydropyrimidine-2,4(1H,3H)-dione] | ≤ 50 | 50 to 100 | 50 to 100 | 50 to 100
C#Cc1c(F)ccc2cc(O)cc(-c3ncc4c(N5CC6CCC(C5)N6)nc(OCC5(CN6CCN(CC7CCC8(CC7)CCN(C(=O)c7ccc(Cl)c(N9CCC(=O)N(C)C9=O)c7)CC8)CC6)CC5)nc4c3F)c12 [Example 17, 1-(5-(9-((4-((1-(((4-(3,8-diazabicyclo[3.2.1]octan-3-yl)-7-(8-ethynyl-7-fluoro-3-hydroxynaphthalen-1-yl)-8-fluoropyrido[4,3-d]pyrimidin-2-yl)oxy)methyl)cyclopropyl)methyl)piperazin-1-yl)methyl)-3-azaspiro[5.5]undecane-3-carbonyl)-2-chlorophenyl)-3-methyldihydropyrimidine-2,4(1H,3H)-dione] | ≤ 50 | 50 to 100 | 50 to 100 | ≤ 50
C#Cc1c(F)ccc2cc(O)cc(-c3ncc4c(N5CC6CCC(C5)N6)nc(OCC5(CN6CCN(CC7CCC8(CC7)CCN(C(=O)c7ccc(Br)c(N9CCC(=O)NC9=O)c7)CC8)CC6)CC5)nc4c3F)c12 [Example 29, 1-(5-(9-((4-((1-(((4-(3,8-diazabicyclo[3.2.1]octan-3-yl)-7-(8-ethynyl-7-fluoro-3-hydroxynaphthalen-1-yl)-8-fluoropyrido[4,3-d]pyrimidin-2-yl)oxy)methyl)cyclopropyl)methyl)piperazin-1-yl)methyl)-3-azaspiro[5.5]undecane-3-carbonyl)-2-bromophenyl)dihydropyrimidine-2,4(1H,3H)-dione] | ≤ 50 | ≤ 50 | ≤ 50 | ≤ 50
C#Cc1c(F)ccc2cc(O)cc(-c3ncc4c(N5CC6CCC(C5)N6)nc(OCC5(CN6CCN(CC7CCC8(CC7)CCN(C(=O)c7ccc(Cl)c(N9CCC(=O)NC9=O)c7)CC8)CC6)CC5)nc4c3F)c12 [Example 6, 1-(5-(9-((4-((1-(((4-(3,8-diazabicyclo[3.2.1]octan-3-yl)-7-(8-ethynyl-7-fluoro-3-hydroxynaphthalen-1-yl)-8-fluoropyrido[4,3-d]pyrimidin-2-yl)oxy)methyl)cyclopropyl)methyl)piperazin-1-yl)methyl)-3-azaspiro[5.5]undecane-3-carbonyl)-2-chlorophenyl)dihydropyrimidine-2,4(1H,3H)-dione] | ≤ 50 | ≤ 50 | ≤ 50 | ≤ 50
C#Cc1c(F)ccc2cc(O)cc(-c3ncc4c(N5CC6CCC(C5)N6)nc(OCC5(CN6CCN(CCCC7CCN(C(=O)c8ccc(Cl)c(N9CCC(=O)NC9=O)c8)CC7)CC6)CC5)nc4c3F)c12 [Example 4, 1-(5-(4-(3-(4-((1-(((4-(3,8-diazabicyclo[3.2.1]octan-3-yl)-7-(8-ethynyl-7-fluoro-3-hydroxynaphthalen-1-yl)-8-fluoropyrido[4,3-d]pyrimidin-2-yl)oxy)methyl)cyclopropyl)methyl)piperazin-1-yl)propyl)piperidine-1-carbonyl)-2-chlorophenyl)dihydropyrimidine-2,4(1H,3H)-dione] | ≤ 50 | 50 to 100 | 100 to 500 | ≤ 50
CCc1cccc2cc(O)cc(-c3ncc4c(N5CC6CCC(C5)N6)nc(OCC5(CN6CCN(CC7CCC8(CC7)CCN(C(=O)c7ccc(OC)c(N9CCC(=O)NC9=O)c7)CC8)CC6)CC5)nc4c3F)c12 [Example 20, 1-(5-(9-((4-((1-(((4-(3,8-diazabicyclo[3.2.1]octan-3-yl)-7-(8-ethyl-3-hydroxynaphthalen-1-yl)-8-fluoropyrido[4,3-d]pyrimidin-2-yl)oxy)methyl)cyclopropyl)methyl)piperazin-1-yl)methyl)-3-azaspiro[5.5]undecane-3-carbonyl)-2-methoxyphenyl)dihydropyrimidine-2,4(1H,3H)-dione] | ≤ 50 | ≤ 50 | ≤ 50 | ≤ 50
C#Cc1c(F)ccc2cc(O)cc(-c3ncc4c(N5CC6CCC(C5)N6)nc(OCC(C)(C)CN5CCN(CCCC6CCN(C(=O)c7ccc(Cl)c(N8CCC(=O)NC8=O)c7)CC6)CC5)nc4c3F)c12 [Example 23, 1-(5-(4-(3-(4-(3-((4-(3,8-diazabicyclo[3.2.1]octan-3-yl)-7-(8-ethynyl-7-fluoro-3-hydroxynaphthalen-1-yl)-8-fluoropyrido[4,3-d]pyrimidin-2-yl)oxy)-2,2-dimethylpropyl)piperazin-1-yl)propyl)piperidine-1-carbonyl)-2-chlorophenyl)dihydropyrimidine-2,4(1H,3H)-dione] | 100 to 500 | 50 to 100 | 100 to 500 | ≤ 50
CCc1c(F)ccc2cc(O)cc(-c3ncc4c(N5CC6CCC(C5)N6)nc(OCC5(CN6CCN(CC7CCC8(CC7)CCN(C(=O)c7ccc(Cl)c(N9CCC(=O)NC9=O)c7)CC8)CC6)CC5)nc4c3F)c12 [Example 30, 1-(5-(9-((4-((1-(((4-(3,8-diazabicyclo[3.2.1]octan-3-yl)-7-(8-ethyl-7-fluoro-3-hydroxynaphthalen-1-yl)-8-fluoropyrido[4,3-d]pyrimidin-2-yl)oxy)methyl)cyclopropyl)methyl)piperazin-1-yl)methyl)-3-azaspiro[5.5]undecane-3-carbonyl)-2-chlorophenyl)dihydropyrimidine-2,4(1H,3H)-dione] | ≤ 50 | ≤ 50 | ≤ 50 | 50 to 100
CCc1c(F)ccc2cc(O)cc(-c3ncc4c(N5CC6CCC(C5)N6)nc(OCC5(CN6CCN(CC7CCC8(CC7)CCN(C(=O)c7ccc(OC)c(N9CCC(=O)NC9=O)c7)CC8)CC6)CC5)nc4c3F)c12 [Example 15, 1-(5-(9-((4-((1-(((4-(3,8-diazabicyclo[3.2.1]octan-3-yl)-7-(8-ethyl-7-fluoro-3-hydroxynaphthalen-1-yl)-8-fluoropyrido[4,3-d]pyrimidin-2-yl)oxy)methyl)cyclopropyl)methyl)piperazin-1-yl)methyl)-3-azaspiro[5.5]undecane-3-carbonyl)-2-methoxyphenyl)dihydropyrimidine-2,4(1H,3H)-dione] | ≤ 50 | ≤ 50 | ≤ 50 | ≤ 50
